Results: US9175305B2, “Mutant hydroxyphenylpyruvate dioxygenase polypeptides and methods of use” (Syngenta Participations AG, priority 2009, dated 2015)

What was measured:
HPPD SEQ ID NO:26 = HPPD SEQ ID NO:26 (Avena sativa, UniProt A0ACD5V6K6, DEL109-109/L256M/L359M); test: biochemical; format: binding; settings: read-out: koff (k1)
Procedure: On rates (governed by an association rate constant, kon) for the formation of the enzyme: inhibitor complexes, EI and off rates (governed by a dissociation rate constant, koff) were determined by methods known in the art and essentially as described in Hawkes et al. (2001) Proc. Bright. Crop. Prot. Conf. Weeds, 2:563-568 and in PCT Patent App. Pub. No. WO 02/46387).
For example, on rates were measured by, at zero time, adding ˜60 pmoles HPPD to 50 mM BisTrisPropane buffer at pH7.0 and at 25° C. containing 25 mM Na ascorbate, 4 μg/ml bovine catalase (Sigma, St. Louis, Mo.) and an excess (˜300 pmoles) of ^14C inhibitor in a total assay volume of 425 μl and, at various time points (0-180 s), quenching the radiolabel binding reaction by addition and rapid mixing of 100 μl ‘cold’ 1 mM structure A. Protein samples quenched at different times were then exchanged into 50 mM BisTrisPropane buffer at pH 7.0 containing 0.1M KCl by rapid chromatography down a NAP5 G25 Sephadex column (GE Healthcare Ltd, Buckinghamshire UK) and the amount of ^14C bound to protein fractions quantified in Optiphase scintillant using a Tri-Carb 2900TR scintillation counter (Perkin Elmer, Wellesley, Mass.). The data were fit according to the scheme below in order to derive the value of the apparent second order rate constant, k2, governing the association rate of enzyme and radiolabelled inhibitor. […]

HPPD SEQ ID NO:19 = HPPD SEQ ID NO:19 (Avena sativa, UniProt A0ACD5V6K6, DEL109-109/I285A); test: biochemical; format: binding
HPPD SEQ ID NO:24 = HPPD SEQ ID NO:24 (Avena sativa, UniProt A0ACD5V6K6, DEL109-109/L359M); test: biochemical; format: binding
[1] = tested on: soybean event S7 (vector 17147) expressing SEQ ID NO:24; test: herbicide spray test on soybean events; format: in vivo; settings: C 400 g/ha; event S7/SEQ#24; V2 growth stage; 14 DAT; average of n=7
Source text: (§1) Each data point represents the average damage score from n=7 replicates.
(§2) These events were used to compare the performance of five 17147 events. Four of these, SF, S8, S7 and S3 had not been preselected for tolerance level (other than to confirm resistance, non-chimerical nature and the presence of the gene) while the remaining event, T0, had been preselected as the most resistant out of five 17147 events in a preliminary field test.
(§3) Plants were in 4×4×4 inch plastic pots and grown under a 15/9 hour light regime (daylight supplemented by artificial light in greenhouses) at a minimum night-time temperature of 18° C. and maximum daytime temperature of 27° C. Soil was regular VBRC mix (1:1 mixture of Vero field soil and Fafard Mix II) where Vero field soil is 98% sand and 2% clay. […] Spray volume was 150 L/ha and the damage scores reflect assessments at 14 DAT.

[2] = tested on: soybean event T0 (vector 17147) expressing SEQ ID NO:24; test: herbicide spray test on soybean events; format: in vivo; settings: C 400 g/ha; event T0/SEQ#24; V2 growth stage; 14 DAT; average of n=7
Source text: as §1, §2, §3

[3] = tested on: soybean event S8 (vector 17147) expressing SEQ ID NO:24; test: herbicide spray test on soybean events; format: in vivo; settings: C 400 g/ha; event S8/SEQ#24; V2 growth stage; 14 DAT; average of n=7
Source text: as §1, §2, §3

[4] = tested on: soybean event 2 (vector 15764) expressing SEQ ID NO:14; test: herbicide spray test on soybean events; format: in vivo; settings: C 400 g/ha; event 2/SEQ#14; V2 growth stage; 14 DAT; average of n=7
Source text: as §1, §2, §3

[5] = tested on: soybean event SF (vector 17147) expressing SEQ ID NO:24; test: herbicide spray test on soybean events; format: in vivo; settings: C 400 g/ha; event SF/SEQ#24; V2 growth stage; 14 DAT; average of n=7
Source text: as §1, §2, §3

[6] = tested on: soybean event S3 (vector 17147) expressing SEQ ID NO:24; test: herbicide spray test on soybean events; format: in vivo; settings: C 400 g/ha; event S3/SEQ#24; V2 growth stage; 14 DAT; average of n=7
Source text: as §1, §2, §3

[7] = tested on: soybean event 1 (vector 15764) expressing SEQ ID NO:14; test: herbicide spray test on soybean events; format: in vivo; settings: C 400 g/ha; event 1/SEQ#14; V2 growth stage; 14 DAT; average of n=7
Source text: as §1, §2, §3

HPPD SEQ ID NO:24, sequence (A0ACD5V6K6 entry or part of it DEL109-109/L359M): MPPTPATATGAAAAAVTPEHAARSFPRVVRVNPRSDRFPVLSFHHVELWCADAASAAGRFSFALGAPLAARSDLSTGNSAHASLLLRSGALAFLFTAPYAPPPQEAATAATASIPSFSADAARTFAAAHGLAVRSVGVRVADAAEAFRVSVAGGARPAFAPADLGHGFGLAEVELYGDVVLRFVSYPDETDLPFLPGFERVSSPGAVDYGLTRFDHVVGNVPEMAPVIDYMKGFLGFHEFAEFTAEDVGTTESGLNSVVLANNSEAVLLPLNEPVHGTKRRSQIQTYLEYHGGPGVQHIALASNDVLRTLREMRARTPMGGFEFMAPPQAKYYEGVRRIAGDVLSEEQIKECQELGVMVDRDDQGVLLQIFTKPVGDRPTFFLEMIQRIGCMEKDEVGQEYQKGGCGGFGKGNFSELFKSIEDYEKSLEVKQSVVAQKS
HPPD SEQ ID NO:19, sequence (A0ACD5V6K6 entry or part of it DEL109-109/I285A): as the sequence (A0ACD5V6K6 entry or part of it DEL109-109/L359M) above, with I284A, M358L counted along it
HPPD SEQ ID NO:26, sequence (A0ACD5V6K6 entry or part of it DEL109-109/L256M/L359M): as the sequence (A0ACD5V6K6 entry or part of it DEL109-109/L359M) above, with L255M counted along it

COCCOCc1nc(C(F)(F)F)ccc1C(=O)C1C(=O)C2CCC(C2)C1=O (stereo not drawn) [Structure C]
koff (HPPD SEQ ID NO:26): 9e-05 s⁻¹ | Kd (HPPD SEQ ID NO:19): 8.9 nM | koff (HPPD SEQ ID NO:19; read-out: koff (k1)): 6.6e-05 s⁻¹ | kon (HPPD SEQ ID NO:19; read-out: kon (k2)): 7500 M⁻¹ s⁻¹ | Kd (HPPD SEQ ID NO:24): 16 nM | SEQ ID NO:24 superior to SEQ ID NO:14 (in vitro, in particular off rate data) (HPPD SEQ ID NO:24): neutral | koff (HPPD SEQ ID NO:24; read-out: koff (k1)): 7.82e-05 s⁻¹ | kon (HPPD SEQ ID NO:24; read-out: kon (k2)): 4900 M⁻¹ s⁻¹ | % dam. [1]: 45% | % dam. [2]: 45% | % dam. [3]: 68.6% | % dam. [4]: 52.9% | % dam. [5]: 98.6% | % dam. [6]: 62.1% | % dam. [7]: 42.1%
